“And” between values parts separate entries of the source, which are not always exact repeats. Identical values can stand only once. Like-named read-outs stand apart in the source and are kept apart here.
System: 60 cancer cell lines (NCI 60 cancer cell line series)
Assay: NCI-DTP in vitro cancer screen, sulforhodamine B (SRB) growth inhibition, 48 hour exposure
Type: cell-based, human
Method: Cancer Cell Line Preparation. Sixty cancer cell lines were obtained from the National Cancer Institute Developmental Therapeutics Program (NCI-DTP). Procedures for growing cells and testing compounds have been described previously (Scudiero et al., Cancer Res. 1988, 48:4827-4833; Stinson et al., Anticancer Res.; Myers et al., Electrophoresis 1997, 18:647-653). Cells are plated on day 0 at a density individualized for each cell line so that they will generally be sub-confluent at the end of the assay period. On day 1, a compound is added in the format for a duplicate-well, 5-dose, ten-fold interval dose response study.
No-drug, no-cell and no-growth controls are included. On day 3 the cells are processed for staining with sulforhodamine B (SRB), which reflects the amount of cell mass present at the end of a 48 hour exposure to the test agent. From dose response curves based on the SRB data, various parameters can be determined. […] More precisely, the quantity used in the calculation to be described is the potency measure −log{GI50}.
Activity database (A). […] This subset of compounds was selected from the larger 23,000 compound database available from the DTP. The compounds were selected on the basis of their known mechanism of action and chemical structure. The average potency −log{GI50} was extracted from the comma-delimited text files available through the Web at http://www.nci.nih.gov/intra/lmp/jnwbio.html. Subsequently, these −log{GI50} values were inspected manually and classified as indicating either Low, Medium or High sensitivity to each compound.

O=C(O)CCCc1ccc(N(CCCl)CCCl)cc1 [Chlorambucil]
2 and 3 and 1: classification of cell line as Low(1), Medium(2), High(3) sensitivity to compound
2: classification of cell line as Low(1), Medium(2), High(3) sensitivity to compound (Breast MCF7(I) CL5001) | classification of cell line as Low(1), Medium(2), High(3) sensitivity to compound (Breast MCF7/ADRr CL5002) | classification of cell line as Low(1), Medium(2), High(3) sensitivity to compound (Breast T-47D CL5014) | classification of cell line as Low(1), Medium(2), High(3) sensitivity to compound (Colon HCT-15 CL4015) | classification of cell line as Low(1), Medium(2), High(3) sensitivity to compound (Colon SW-620 CL4009) | classification of cell line as Low(1), Medium(2), High(3) sensitivity to compound (Leukemia RPMI-8226(I) CL7010) | classification of cell line as Low(1), Medium(2), High(3) sensitivity to compound (Melanoma LOX IMVI CL10001) | classification of cell line as Low(1), Medium(2), High(3) sensitivity to compound (Melanoma M14 CL10014) | classification of cell line as Low(1), Medium(2), High(3) sensitivity to compound (Melanoma MALME-3M CL10002) | classification of cell line as Low(1), Medium(2), High(3) sensitivity to compound (Melanoma SK-MEL-5 CL10007) | classification of cell line as Low(1), Medium(2), High(3) sensitivity to compound (Melanoma UACC-257 CL10021) | classification of cell line as Low(1), Medium(2), High(3) sensitivity to compound (NSCLC A549/ATCC CL1004) | classification of cell line as Low(1), Medium(2), High(3) sensitivity to compound (NSCLC HOP-62 CL1026) | classification of cell line as Low(1), Medium(2), High(3) sensitivity to compound (NSCLC HOP-92 CL1029) | sensitivity classification Low(1)/Medium(2)/High(3) (NSCLC NCI-H23(I) CL1001) | classification of cell line as Low(1), Medium(2), High(3) sensitivity to compound (NSCLC NCI-H226 CL1013) | sensitivity classification Low(1)/Medium(2)/High(3) (NSCLC NCI-H522 CL1003) | sensitivity classification Low(1)/Medium(2)/High(3) (Ovarian OVCAR-8 CL6005) | sensitivity classification Low(1)/Medium(2)/High(3) (Prostate DU-145 CL11003) | sensitivity classification Low(1)/Medium(2)/High(3) (Renal 786-0 CL9018) | sensitivity classification Low(1)/Medium(2)/High(3) (Renal RXF-393 CL9016) | sensitivity classification Low(1)/Medium(2)/High(3) (Renal SN12C CL9008) | sensitivity classification Low(1)/Medium(2)/High(3) (Renal UO-31 CL9004)
1: classification of cell line as Low(1), Medium(2), High(3) sensitivity to compound (Breast BT-549 CL5013) | classification of cell line as Low(1), Medium(2), High(3) sensitivity to compound (Breast HS-578T CL5006) | classification of cell line as Low(1), Medium(2), High(3) sensitivity to compound (Breast MDA-MB-231 CL5005) | classification of cell line as Low(1), Medium(2), High(3) sensitivity to compound (Breast MDA-MB-435 CL5011) | classification of cell line as Low(1), Medium(2), High(3) sensitivity to compound (Breast MDA-N CL5012) | classification of cell line as Low(1), Medium(2), High(3) sensitivity to compound (Colon COLO-250 CL4010) | classification of cell line as Low(1), Medium(2), High(3) sensitivity to compound (Colon HCC-2998 CL4002) | classification of cell line as Low(1), Medium(2), High(3) sensitivity to compound (Colon HCT-116 CL4003) | classification of cell line as Low(1), Medium(2), High(3) sensitivity to compound (Colon HT29(I) CL4001) | classification of cell line as Low(1), Medium(2), High(3) sensitivity to compound (Colon KM12 CL4017) | classification of cell line as Low(1), Medium(2), High(3) sensitivity to compound (Leukemia K562(I) CL7005) | classification of cell line as Low(1), Medium(2), High(3) sensitivity to compound (Melanoma SK-MEL-2 CL10005) | classification of cell line as Low(1), Medium(2), High(3) sensitivity to compound (Melanoma SK-MEL-28 CL10008) | classification of cell line as Low(1), Medium(2), High(3) sensitivity to compound (NSCLC EKVX CL1008) | sensitivity classification Low(1)/Medium(2)/High(3) (NSCLC NCI-H332M CL1017) | sensitivity classification Low(1)/Medium(2)/High(3) (Ovarian IGROV1 CL6010) | sensitivity classification Low(1)/Medium(2)/High(3) (Ovarian OVCAR-3 CL6001) | sensitivity classification Low(1)/Medium(2)/High(3) (Ovarian OVCAR-4 CL6002) | sensitivity classification Low(1)/Medium(2)/High(3) (Ovarian OVCAR-5 CL6003) | sensitivity classification Low(1)/Medium(2)/High(3) (Ovarian SK-OV-3 CL6011) | sensitivity classification Low(1)/Medium(2)/High(3) (Prostate PC-3(I) CL11001) | sensitivity classification Low(1)/Medium(2)/High(3) (Renal A498 CL9013) | sensitivity classification Low(1)/Medium(2)/High(3) (Renal TK10 CL9024)
3: classification of cell line as Low(1), Medium(2), High(3) sensitivity to compound (Leukemia CCRF-CEM(I) CL7003) | classification of cell line as Low(1), Medium(2), High(3) sensitivity to compound (Leukemia HL-60(I) CL7008) | classification of cell line as Low(1), Medium(2), High(3) sensitivity to compound (Leukemia MOLT-4 CL7006) | classification of cell line as Low(1), Medium(2), High(3) sensitivity to compound (Leukemia SR CL7019) | classification of cell line as Low(1), Medium(2), High(3) sensitivity to compound (Melanoma UACC-62 CL10020) | sensitivity classification Low(1)/Medium(2)/High(3) (NSCLC NCI-H460 CL1021) | sensitivity classification Low(1)/Medium(2)/High(3) (Renal ACHN CL9023) | sensitivity classification Low(1)/Medium(2)/High(3) (Renal CAKI-1 CL9015)

Reference: patent US20030129629A1, “Methods and compositions for the identification, assessment, prevention, and therapy of human cancers” (Millennium Pharmaceuticals, Inc., priority 2000, published 2003)
